Laboratory results: patent US9416141B2 (University of Washington through its Center for …, priority 2012, dated 2016)
Counter-ions that a name gives are not always drawn. Like-named read-outs stand apart in the source and are kept apart here.

Test system: hair cells
Test: Hair cell toxicity assay in zebrafish (neomycin-induced hair cell death, DASPEI staining of neuromasts)
Format: in vivo
Settings: for Emax at 2.8 µM: maximum observed @ 2.8 μM test compound; for Emax at 25 µM: maximum observed @ 25 μM test compound; for EC50: zebrafish larvae 5-7 dpf, 1 h pre-treatment, then 200 micromolar neomycin + test compound 30 min, read-out: HC50 (concentration that would produce 50% hair cell survival); for Emax at 0.9 µM: maximum observed @ 0.9 μM test compound
Summary of the method: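 Hair cell survival, as % of untreated controls, came from DASPEI scoring (0-2 each, ten neuromasts on one side) in 5-7 dpf larvae. These had 1 h compound pre-exposure (0.010-25 μM), then 200 μM neomycin with compound for 30 min. HCmax is peak protection; HC50 interpolated between flanking concentrations only when ≥50% survive.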

[1] = Danio rerio, 200 micromolar neomycin, read-out: Max HC Protection (HCmax, % hair cell survival)

Structure (SMILES)	Emax at 25 µM [1] [%]	EC50 (Danio rerio) [nM]	also measured
NC(=O)c1c(NC(=O)Nc2ccc(Cl)cc2)sc2c1CC1CCC2N1 (single isomer, unassigned; (+)) [Example 130, (+)-2-[3-(4-Chlorophenyl)ureido]-5,6,7,8-tetrahydro-4H-5,8-epiminocyclohepta[b]thiophene-3-carboxamide hydrochloride]	–	–	Emax at 2.8 µM [1]: 40%
CCN1CCc2c(sc(NC(=O)Nc3ccc4ccccc4c3)c2C(N)=O)C1 [Example 223, 6-ethyl-2-{[(naphthalen-2-yl)carbamoyl]amino}-4H,5H,6H,7H-thieno[2,3-c]pyridine-3-carboxamide]	104	1000 to 10000	–
NC(=O)c1c(NC(=O)Nc2ccc(Cl)cc2)sc2c1CCC(=O)C2 [Example 91, 2-[3-(4-Chlorophenyl)ureido]-6-oxo-4,5,6,7-tetrahydrobenzo[b]thiophene-3-carboxamide]	–	–	Emax at 0.9 µM [1]: 15%
C[N+]1(CC2CCC2)CCc2c(sc(NC(=O)Nc3ccc(Cl)c4ccccc34)c2C(N)=O)C1 (stereo not shown) [Example 182, 3-Carbamoyl-2-[3-(4-chloronaphthalen-1-yl)ureido]-6-(cyclobutylmethyl)-6-methyl-4,5,6,7-tetrahydrothieno[2,3-c]pyridin-6-ium chloride]	–	1000 to 10000	Emax at 83 µM (Danio rerio, maximum observed @ 83 μM test compound, 200 micromolar neomycin, read-out: Max HC Protection (HCmax, % hair cell survival)): 76%
NC(=O)c1c(NC(=O)Nc2ccc(Cl)cc2)sc2c1CC[N+]1(CCOCC1)C2 [Example 146, 3′-Carbamoyl-2′-[3-(4-chlorophenyl)ureido]-5′,7′-dihydro-4′H-spiro[morpholine-4,6′-thieno[2,3-c]pyridin]-4-ium iodide]	96	1000 to 10000	–
CN1C2CCC1c1sc(NC(=O)Nc3ccc(Cl)cc3)c(C(N)=O)c1C2 (single isomer, unassigned; (+)) [Example 128, (+)-2-[3-(4-Chlorophenyl)ureido]-9-methyl-5,6,7,8-tetrahydro-4H-5,8-epiminocyclohepta[b]thiophene-3-carboxamide hydrochloride]	–	–	EC50 (hydrochloride): < 1000 nM
CCN1CCc2c(sc(NC(=O)Nc3cccc(C#N)c3)c2C(N)=O)C1 [Example 73, 2-[3-(3-Cyanophenyl)ureido]-6-ethyl-4,5,6,7-tetrahydrothieno[2,3-c]pyridine-3-carboxamide hydrochloride]	51	> 10000	–
CC(C)C[N+]1(C)CCc2c(sc(NC(=O)Nc3ccc4ccccc4c3)c2C(N)=O)C1 (stereo not shown) [Example 175, 3-Carbamoyl-6-isobutyl-6-methyl-2-[3-(naphthalen-2-yl)ureido]-4,5,6,7-tetrahydrothieno[2,3-c]pyridin-6-ium iodide]	111	< 1000	–
NCCN1CCc2c(sc(NC(=O)Nc3ccc(Cl)cc3)c2C(N)=O)C1 [Example 11, 6-(2-Aminoethyl)-2-[3-(4-chlorophenyl)ureido]-4,5,6,7-tetrahydrothieno[2,3-c]pyridine-3-carboxamide dihydrochloride]	68	1000 to 10000	–
CCN1CCc2c(sc(NC(=O)C3(c4ccc(Cl)cc4)CC3)c2C(N)=O)C1 [Example 105, 2-[1-(4-chlorophenyl)cyclopropanecarboxamido]-6-ethyl-4,5,6,7-tetrahydrothieno[2,3-c]pyridine-3-carboxamide]	7	–	–
CC(C)(C)CN1CCc2c(sc(NC(=O)Nc3ccc4ccccc4c3)c2C(N)=O)C1 [Example 36, 2-[3-(Naphthalen-2-yl)ureido]-6-neopentyl-4,5,6,7-tetrahydrothieno[2,3-c]pyridine-3-carboxamide hydrochloride]	–	–	Emax at 8.3 µM (Danio rerio, maximum observed @ 8.3 μM test compound, 200 micromolar neomycin, read-out: Max HC Protection (HCmax, % hair cell survival)): 13%
CC(C)(C)CN1CCc2c(sc(NC(=O)Nc3ccc(Cl)cc3)c2C(N)=O)C1 [Example 27, 2-[3-(4-Chlorophenyl)ureido]-6-neopentyl-4,5,6,7-tetrahydrothieno[2,3-c]pyridine-3-carboxamide hydrochloride]	79	1000 to 10000	–
NC(=O)c1c(NC(=O)Nc2ccc3ccccc3c2)sc2c1CCN(CC1CCC1)C2 [Example 35, 6-(Cyclobutylmethyl)-2-[3-(naphthalen-2-yl)ureido]-4,5,6,7-tetrahydrothieno[2,3-c]pyridine-3-carboxamide hydrochloride]	–	–	Emax at 2.8 µM [1]: 42%
CC(C)(C)OC(=O)CCC[N+]1(CC2CCC2)CCc2c(sc(NC(=O)Nc3ccc(Cl)cc3)c2C(N)=O)C1 (stereo not shown) [Example 199, 6-[4-(tert-Butoxy)-4-oxobutyl]-3-carbamoyl-2-[3-(4-chlorophenyl)ureido]-6-(cyclobutylmethyl)-4,5,6,7-tetrahydrothieno[2,3-c]pyridin-6-ium trifluoroacetate]	–	< 1000	Emax at 0.3 µM (Danio rerio, maximum observed @ 0.3 μM test compound, 200 micromolar neomycin, read-out: Max HC Protection (HCmax, % hair cell survival)): 68%
CC[N+]1(C)CCc2c(sc(NC(=O)Nc3ccc(Cl)cc3)c2C(N)=O)C1 (stereo not shown) [Example 136, 3-Carbamoyl-2-[3-(4-chlorophenyl)ureido]-6-ethyl-6-methyl-4,5,6,7-tetrahydrothieno[2,3-c]pyridin-6-ium iodide]	76	1000 to 10000	–
CCN1CCc2c(sc(NC(=O)Nc3ccc(C(=O)OC(C)(C)C)cc3)c2C(N)=O)C1 [Example 29, tert-Butyl 4-[3-(3-carbamoyl-6-ethyl-4,5,6,7-tetrahydrothieno[2,3-c]pyridin-2-yl)ureido]benzoate]	75	1000 to 10000	–
CCN1CCc2c(sc(N(CC)C(=O)Nc3ccc(Cl)cc3)c2C(N)=O)C1 [Example 113, 2-[3-(4-chlorophenyl)-1-ethylureido]-6-ethyl-4,5,6,7-tetrahydrothieno[2,3-c]pyridine-3-carboxamide hydrochloride]	–	–	Emax at 2.8 µM [1]: 12%
CCN1CCc2sc(NC(=O)Nc3ccc(Cl)cc3)c(C(N)=O)c2CC1 [Example 115, 2-[3-(4-Chlorophenyl)ureido]-6-ethyl-5,6,7,8-tetrahydro-4H-thieno[2,3-d]azepine-3-carboxamide hydrochloride]	99	1000 to 10000	–
NC(=O)c1c(NC(=O)Nc2ccc(Cl)cc2)sc2c1CC1CCC2N1 (single isomer, unassigned; (-)) [Example 129, (−)-2-[3-(4-Chlorophenyl)ureido]-5,6,7,8-tetrahydro-4H-5,8-epiminocyclohepta[b]thiophene-3-carboxamide hydrochloride]	–	< 1000	Emax at 2.8 µM [1]: 81%
C[N+]1(CC2CC2)CCc2c(sc(NC(=O)Nc3ccc(Cl)cc3)c2C(N)=O)C1 (stereo not shown) [Example 140, 3-Carbamoyl-2-[3-(4-chlorophenyl)ureido]-6-(cyclopropylmethyl)-6-methyl-4,5,6,7-tetrahydrothieno[2,3-c]pyridin-6-ium iodide]	92	< 1000	–
C[N+]1(CC2CCCCC2)CCc2c(sc(NC(=O)Nc3ccc(Cl)cc3)c2C(N)=O)C1 (stereo not shown) [Example 152, 3-Carbamoyl-2-[3-(4-chlorophenyl)ureido]-6-(cyclohexylmethyl)-6-methyl-4,5,6,7-tetrahydrothieno[2,3-c]pyridin-6-ium iodide]	–	< 1000	Emax at 0.9 µM [1]: 78%
C[N+]1(CCC(N)=O)CCc2c(sc(NC(=O)Nc3ccc(Cl)cc3)c2C(N)=O)C1 (stereo not shown) [Example 157, 6-(3-Amino-3-oxopropyl)-3-carbamoyl-2-[3-(4-chlorophenyl)ureido]-6-methyl-4,5,6,7-tetrahydrothieno[2,3-c]pyridin-6-ium iodide]	94	1000 to 10000	–
C[N+]1(CC23CC4CC(CC(C4)C2)C3)CCc2c(sc(NC(=O)Nc3ccc(Cl)cc3)c2C(N)=O)C1 (stereo not shown) [Example 197, 6-[(3r,5r,7r)-Adamantan-1-ylmethyl]-3-carbamoyl-2-[3-(4-chlorophenyl)ureido]-6-methyl-4,5,6,7-tetrahydrothieno[2,3-c]pyridin-6-ium chloride]	–	< 1000	Emax at 2.8 µM [1]: 93%
NC(=O)c1c(NC(=O)Nc2ccc(Cl)cc2)sc2c1CCN(CCN1CCCCC1)C2 [Example 44, 2-[3-(4-chlorophenyl)ureido]-6-[2-(piperidin-1-yl)ethyl]-4,5,6,7-tetrahydrothieno[2,3-c]pyridine-3-carboxamide ditrifluoroacetate]	98	1000 to 10000	–
COCCC[N+]1(C)CCc2c(sc(NC(=O)Nc3ccc(Cl)cc3)c2C(N)=O)C1 (stereo not shown) [Example 141, 3-Carbamoyl-2-[3-(4-chlorophenyl)ureido]-6-(3-methoxypropyl)-6-methyl-4,5,6,7-tetrahydrothieno[2,3-c]pyridin-6-ium iodide]	–	< 1000	Emax at 2.8 µM [1]: 77%
CCN1CCc2c(sc(NC(=O)Nc3ccc(Br)cc3)c2C(N)=O)C1 [Example 222, 2-{[(4-bromophenyl)carbamoyl]amino}-6-ethyl-4H,5H,6H,7H-thieno[2,3-c]pyridine-3-carboxamide]	90	1000 to 10000	–
C#CCCC(=O)NCCCN1CCc2c(sc(NC(=O)Nc3ccc(Cl)cc3)c2C(N)=O)C1 [Example 216, 2-{[(4-chlorophenyl)carbamoyl]amino}-6-[3-(pent-4-ynamido)propyl]-4H,5H,6H,7H-thieno[2,3-c]pyridine-3-carboxamide]	97	1000 to 10000	–
C[N+]1(CCO)CCc2c(sc(NC(=O)Nc3ccc(Cl)cc3)c2C(N)=O)C1 (stereo not shown) [Example 144, 3-Carbamoyl-2-[3-(4-chlorophenyl)ureido]-6-(2-hydroxyethyl)-6-methyl-4,5,6,7-tetrahydrothieno[2,3-c]pyridin-6-ium iodide]	78	1000 to 10000	–
